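48-hour exposure; five concentrations; linearly interpolated endpoints. Here, GI50 denotes the concentration required for 50% inhibition of growth.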 Active and inactive are the calls of the source. No stated cut-off is given here; in the data, active = GI50 up to about 1.1 µM and inactive = higher.
How the values were obtained:
Test in all cases: DTP human tumour cell line panel, 48 h
786-0 = tested on: 786-0
A498 = tested on: A498
A549 = tested on: A549
ACHN = tested on: ACHN
CAKI-1 = tested on: CAKI-1
CCRF-CEM = tested on: CCRF-CEM
COLO 205 = tested on: COLO 205
DLD-1 = tested on: DLD-1
DMS-114 = tested on: DMS-114
DMS-273 = tested on: DMS-273
EKVX = tested on: EKVX
HCC 2998 = tested on: HCC 2998
HCT-116 = tested on: HCT-116
HCT-15 = tested on: HCT-15
HL-60 = tested on: HL-60
HOP-18 = tested on: HOP-18
HOP-62 = tested on: HOP-62
HOP-92 = tested on: HOP-92
HT-29 = tested on: HT-29
IGROV-1 = tested on: IGROV-1
K562 = tested on: K562
KM-20L2 = tested on: KM-20L2
KM12 = tested on: KM12
LOX IMVI = tested on: LOX IMVI
LXFL 529 = tested on: LXFL 529
M14 = tested on: M14
M19-MEL = tested on: M19-MEL
MOLT-4 = tested on: MOLT-4
Malme-3M = tested on: Malme-3M
NCI-H226 = tested on: NCI-H226
NCI-H23 = tested on: NCI-H23
NCI-H460 = tested on: NCI-H460
NCI-H522 = tested on: NCI-H522
OVCAR-3 = tested on: OVCAR-3
OVCAR-4 = tested on: OVCAR-4
OVCAR-5 = tested on: OVCAR-5
OVCAR-8 = tested on: OVCAR-8
RXF 393 = tested on: RXF 393
SF-268 = tested on: SF-268
SF-295 = tested on: SF-295
SF-539 = tested on: SF-539
SK-MEL-28 = tested on: SK-MEL-28
SK-MEL-2 = tested on: SK-MEL-2
SK-MEL-5 = tested on: SK-MEL-5
SK-OV-3 = tested on: SK-OV-3
SN12C = tested on: SN12C
SNB-19 = tested on: SNB-19
SNB-75 = tested on: SNB-75
SNB-78 = tested on: SNB-78
SW-620 = tested on: SW-620
TK-10 = tested on: TK-10
U-251 = tested on: U-251
UACC-257 = tested on: UACC-257
UACC-62 = tested on: UACC-62
UO-31 = tested on: UO-31
XF498 = tested on: XF498
SR = tested on: SR
RPMI-8226 = tested on: RPMI-8226
RXF 631 = tested on: RXF 631

Cc1cccc(C)c1NC(=O)C(=O)C(C#N)c1ccccc1 (configuration not stated)
GI50 (786-0): > 100 µM (inactive)
GI50 (A498): > 100 µM (inactive)
GI50 (A549): > 100 µM (inactive)
GI50 (ACHN): > 100 µM (inactive)
GI50 (CAKI-1): > 100 µM (inactive)
GI50 (CCRF-CEM): > 100 µM (inactive)
GI50 (COLO 205): > 100 µM (inactive)
GI50 (DLD-1): > 100 µM (inactive)
GI50 (DMS-114): > 100 µM (inactive)
GI50 (DMS-273): > 100 µM (inactive)
GI50 (EKVX): > 100 µM (inactive)
GI50 (HCC 2998): > 100 µM (inactive)
GI50 (HCT-116): > 100 µM (inactive)
GI50 (HCT-15): > 100 µM
GI50 (HL-60): > 100 µM (inactive)
GI50 (HOP-18): > 100 µM (inactive)
GI50 (HOP-62): > 100 µM (inactive)
GI50 (HOP-92): > 100 µM (inactive)
GI50 (HT-29): > 100 µM (inactive)
GI50 (IGROV-1): > 100 µM (inactive)
GI50 (K562): > 100 µM (inactive)
GI50 (KM-20L2): > 100 µM (inactive)
GI50 (KM12): > 100 µM (inactive)
GI50 (LOX IMVI): > 100 µM (inactive)
GI50 (LXFL 529): > 100 µM (inactive)
GI50 (M14): > 100 µM (inactive)
GI50 (M19-MEL): > 100 µM (inactive)
GI50 (MOLT-4): > 100 µM (inactive)
GI50 (Malme-3M): > 100 µM (inactive)
GI50 (NCI-H226): > 100 µM (inactive)
GI50 (NCI-H23): > 100 µM (inactive)
GI50 (NCI-H460): > 100 µM (inactive)
GI50 (NCI-H522): > 100 µM (inactive)
GI50 (OVCAR-3): > 100 µM (inactive)
GI50 (OVCAR-4): > 100 µM (inactive)
GI50 (OVCAR-5): > 100 µM (inactive)
GI50 (OVCAR-8): > 100 µM (inactive)
GI50 (RXF 393): > 100 µM (inactive)
GI50 (SF-268): > 100 µM (inactive)
GI50 (SF-295): > 100 µM (inactive)
GI50 (SF-539): > 100 µM (inactive)
GI50 (SK-MEL-28): > 100 µM (inactive)
GI50 (SK-MEL-2): > 100 µM (inactive)
GI50 (SK-MEL-5): > 100 µM (inactive)
GI50 (SK-OV-3): > 100 µM (inactive)
GI50 (SN12C): > 100 µM (inactive)
GI50 (SNB-19): > 100 µM (inactive)
GI50 (SNB-75): > 100 µM (inactive)
GI50 (SNB-78): > 100 µM (inactive)
GI50 (SW-620): > 100 µM (inactive)
GI50 (TK-10): > 100 µM (inactive)
GI50 (U-251): > 100 µM (inactive)
GI50 (UACC-257): > 100 µM (inactive)
GI50 (UACC-62): > 100 µM (inactive)
GI50 (UO-31): > 100 µM (inactive)
GI50 (XF498): > 100 µM (inactive)

Cc1cc(N(CCC#N)CCC#N)ccc1/C=C1/CN(N2C(=O)/C(=C/c3ccc(N(CCC#N)CCC#N)cc3C)N=C2c2ccccc2)C(c2ccccc2)=N1
GI50 (786-0): 54.3 µM (inactive)
GI50 (A498): > 100 µM (inactive)
GI50 (A549): > 100 µM (inactive)
GI50 (ACHN): > 100 µM (inactive)
GI50 (CAKI-1): > 100 µM (inactive)
GI50 (CCRF-CEM): > 100 µM (inactive)
GI50 (COLO 205): > 100 µM (inactive)
GI50 (DLD-1): > 100 µM (inactive)
GI50 (DMS-114): > 100 µM (inactive)
GI50 (DMS-273): > 100 µM (inactive)
GI50 (EKVX): > 100 µM (inactive)
GI50 (HCC 2998): > 100 µM (inactive)
GI50 (HCT-116): > 100 µM (inactive)
GI50 (HCT-15): > 100 µM
GI50 (HL-60): > 100 µM (inactive)
GI50 (HOP-18): > 100 µM (inactive)
GI50 (HOP-62): 34.6 µM (inactive)
GI50 (HOP-92): 44.6 µM (inactive)
GI50 (HT-29): > 100 µM (inactive)
GI50 (IGROV-1): > 100 µM (inactive)
GI50 (K562): > 100 µM (inactive)
GI50 (KM-20L2): > 100 µM (inactive)
GI50 (KM12): > 100 µM (inactive)
GI50 (LOX IMVI): > 100 µM (inactive)
GI50 (LXFL 529): 63.5 µM (inactive)
GI50 (M14): 90.4 µM (inactive)
GI50 (M19-MEL): > 100 µM (inactive)
GI50 (MOLT-4): > 100 µM (inactive)
GI50 (Malme-3M): > 100 µM (inactive)
GI50 (NCI-H226): > 100 µM (inactive)
GI50 (NCI-H23): 42.8 µM (inactive)
GI50 (NCI-H460): > 100 µM (inactive)
GI50 (NCI-H522): > 100 µM (inactive)
GI50 (OVCAR-3): > 100 µM (inactive)
GI50 (OVCAR-4): > 100 µM (inactive)
GI50 (OVCAR-5): > 100 µM (inactive)
GI50 (OVCAR-8): > 100 µM (inactive)
GI50 (RXF 393): 28.4 µM (inactive)
GI50 (SF-268): > 100 µM (inactive)
GI50 (SF-295): 48.8 µM (inactive)
GI50 (SF-539): 99.5 µM (inactive)
GI50 (SK-MEL-28): > 100 µM (inactive)
GI50 (SK-MEL-5): > 100 µM (inactive)
GI50 (SN12C): > 100 µM (inactive)
GI50 (SNB-19): 41 µM (inactive)
GI50 (SNB-75): 16.9 µM (inactive)
GI50 (SNB-78): 32.1 µM (inactive)
GI50 (SR): > 100 µM (inactive)
GI50 (SW-620): > 100 µM (inactive)
GI50 (TK-10): 26.5 µM (inactive)
GI50 (U-251): 32 µM (inactive)
GI50 (UACC-257): > 100 µM (inactive)
GI50 (UACC-62): > 100 µM (inactive)
GI50 (UO-31): > 100 µM (inactive)
GI50 (XF498): 36 µM (inactive)

O=c1/c(=C/c2ccccc2O)sc2nc3ccccc3n12
GI50 (786-0): 53.2 µM (inactive)
GI50 (A498): 49.4 µM (inactive)
GI50 (A549): 41.8 µM (inactive)
GI50 (ACHN): 45.6 µM (inactive)
GI50 (CAKI-1): 34.6 µM (inactive)
GI50 (CCRF-CEM): 16.3 µM (inactive)
GI50 (DLD-1): 29.9 µM (inactive)
GI50 (DMS-114): 19.7 µM (inactive)
GI50 (DMS-273): 82.4 µM (inactive)
GI50 (EKVX): 15.3 µM (inactive)
GI50 (HCC 2998): 55.8 µM (inactive)
GI50 (HCT-116): 47.3 µM (inactive)
GI50 (HCT-15): 21.6 µM
GI50 (HL-60): 4.9 µM (inactive)
GI50 (HOP-92): 24.4 µM (inactive)
GI50 (HT-29): 43.2 µM (inactive)
GI50 (IGROV-1): 16.9 µM (inactive)
GI50 (K562): 33.6 µM (inactive)
GI50 (KM-20L2): 84.1 µM (inactive)
GI50 (LOX IMVI): 35.5 µM (inactive)
GI50 (LXFL 529): 31.3 µM (inactive)
GI50 (M14): 47.9 µM (inactive)
GI50 (M19-MEL): 41.2 µM (inactive)
GI50 (MOLT-4): 18.1 µM (inactive)
GI50 (Malme-3M): 32.2 µM (inactive)
GI50 (NCI-H226): 52.1 µM (inactive)
GI50 (NCI-H23): 38.7 µM (inactive)
GI50 (NCI-H460): 35 µM (inactive)
GI50 (OVCAR-3): 29.7 µM (inactive)
GI50 (OVCAR-4): 80.4 µM (inactive)
GI50 (OVCAR-5): > 100 µM (inactive)
GI50 (OVCAR-8): 45 µM (inactive)
GI50 (RPMI-8226): 21.2 µM (inactive)
GI50 (RXF 393): 21.9 µM (inactive)
GI50 (RXF 631): 43.7 µM (inactive)
GI50 (SF-268): 16.6 µM (inactive)
GI50 (SF-295): 34.3 µM (inactive)
GI50 (SF-539): 35.5 µM (inactive)
GI50 (SK-MEL-28): 23.6 µM (inactive)
GI50 (SK-MEL-2): 32.3 µM (inactive)
GI50 (SK-MEL-5): 30.7 µM (inactive)
GI50 (SN12C): 33.9 µM (inactive)
GI50 (SNB-19): 80.7 µM (inactive)
GI50 (SNB-75): 84.9 µM (inactive)
GI50 (SNB-78): 43.2 µM (inactive)
GI50 (SR): 27.4 µM (inactive)
GI50 (SW-620): 40.5 µM (inactive)
GI50 (TK-10): > 100 µM (inactive)
GI50 (UACC-257): 62.7 µM (inactive)
GI50 (UACC-62): 23.1 µM (inactive)
GI50 (UO-31): 46.8 µM (inactive)
